In ChEMBL document CHEMBL4507268 (2021):

Tests used:
[1] = test system: Tyrosine-protein kinase ABL1 (Homo sapiens), P00519 [Y253F]; settings: Compound concentration 1000.0 nM
[2] = target: Casein kinase I isoform gamma-1 (Homo sapiens) (UniProt Q9HCP0); settings: Compound concentration 1000.0 nM
[3] = target: Epidermal growth factor receptor (Homo sapiens) (UniProt P00533); settings: Compound concentration 1000.0 nM
[4] = target: Mitogen-activated protein kinase 15 (Homo sapiens) (UniProt Q8TD08); settings: Compound concentration 1000.0 nM
Mitogen-activated protein kinase 15 (Homo sapiens), sequence (Q8TD08 whole entry): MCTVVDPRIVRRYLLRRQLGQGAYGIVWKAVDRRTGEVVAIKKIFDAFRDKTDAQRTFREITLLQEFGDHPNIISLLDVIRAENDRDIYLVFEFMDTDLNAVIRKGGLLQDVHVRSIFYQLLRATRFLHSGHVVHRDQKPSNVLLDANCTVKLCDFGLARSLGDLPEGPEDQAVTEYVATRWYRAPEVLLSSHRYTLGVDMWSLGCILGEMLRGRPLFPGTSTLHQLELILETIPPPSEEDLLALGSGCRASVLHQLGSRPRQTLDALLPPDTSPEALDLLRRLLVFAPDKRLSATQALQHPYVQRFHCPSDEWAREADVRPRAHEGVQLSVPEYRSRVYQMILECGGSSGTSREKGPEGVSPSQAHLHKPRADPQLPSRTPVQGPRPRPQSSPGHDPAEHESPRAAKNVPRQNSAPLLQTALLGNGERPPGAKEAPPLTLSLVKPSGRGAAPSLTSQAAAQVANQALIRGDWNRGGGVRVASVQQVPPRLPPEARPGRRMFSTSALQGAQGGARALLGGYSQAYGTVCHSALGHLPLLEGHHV

[5] = target: Tyrosine-protein kinase Fer (Homo sapiens) (UniProt P16591); settings: Compound concentration 1000.0 nM
Tyrosine-protein kinase Fer (Homo sapiens), sequence (P16591 whole entry, looked up): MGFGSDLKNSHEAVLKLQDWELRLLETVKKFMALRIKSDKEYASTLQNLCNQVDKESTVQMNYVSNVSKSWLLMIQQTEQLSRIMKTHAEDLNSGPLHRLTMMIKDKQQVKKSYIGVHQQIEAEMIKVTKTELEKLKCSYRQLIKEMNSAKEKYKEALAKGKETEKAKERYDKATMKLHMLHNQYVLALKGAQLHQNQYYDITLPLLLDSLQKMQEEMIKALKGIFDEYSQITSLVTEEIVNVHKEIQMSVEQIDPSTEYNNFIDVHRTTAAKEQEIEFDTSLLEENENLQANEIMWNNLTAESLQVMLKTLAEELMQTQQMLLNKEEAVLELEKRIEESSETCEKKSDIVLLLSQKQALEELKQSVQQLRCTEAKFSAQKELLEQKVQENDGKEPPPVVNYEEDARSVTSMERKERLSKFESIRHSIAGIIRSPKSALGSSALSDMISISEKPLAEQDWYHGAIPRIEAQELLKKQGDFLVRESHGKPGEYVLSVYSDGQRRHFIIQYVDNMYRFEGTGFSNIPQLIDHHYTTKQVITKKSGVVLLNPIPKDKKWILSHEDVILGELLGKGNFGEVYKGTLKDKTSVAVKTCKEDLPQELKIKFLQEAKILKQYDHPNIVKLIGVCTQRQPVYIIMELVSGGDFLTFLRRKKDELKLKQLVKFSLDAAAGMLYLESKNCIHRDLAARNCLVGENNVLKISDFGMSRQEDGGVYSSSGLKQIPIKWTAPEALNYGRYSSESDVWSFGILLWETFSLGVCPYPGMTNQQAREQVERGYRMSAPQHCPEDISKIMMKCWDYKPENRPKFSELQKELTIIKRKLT

[6] = target: Fibroblast growth factor receptor 3 (Homo sapiens) (UniProt P22607); settings: Compound concentration 1000.0 nM
Fibroblast growth factor receptor 3 (Homo sapiens), sequence (P22607 23-806 limits assumed): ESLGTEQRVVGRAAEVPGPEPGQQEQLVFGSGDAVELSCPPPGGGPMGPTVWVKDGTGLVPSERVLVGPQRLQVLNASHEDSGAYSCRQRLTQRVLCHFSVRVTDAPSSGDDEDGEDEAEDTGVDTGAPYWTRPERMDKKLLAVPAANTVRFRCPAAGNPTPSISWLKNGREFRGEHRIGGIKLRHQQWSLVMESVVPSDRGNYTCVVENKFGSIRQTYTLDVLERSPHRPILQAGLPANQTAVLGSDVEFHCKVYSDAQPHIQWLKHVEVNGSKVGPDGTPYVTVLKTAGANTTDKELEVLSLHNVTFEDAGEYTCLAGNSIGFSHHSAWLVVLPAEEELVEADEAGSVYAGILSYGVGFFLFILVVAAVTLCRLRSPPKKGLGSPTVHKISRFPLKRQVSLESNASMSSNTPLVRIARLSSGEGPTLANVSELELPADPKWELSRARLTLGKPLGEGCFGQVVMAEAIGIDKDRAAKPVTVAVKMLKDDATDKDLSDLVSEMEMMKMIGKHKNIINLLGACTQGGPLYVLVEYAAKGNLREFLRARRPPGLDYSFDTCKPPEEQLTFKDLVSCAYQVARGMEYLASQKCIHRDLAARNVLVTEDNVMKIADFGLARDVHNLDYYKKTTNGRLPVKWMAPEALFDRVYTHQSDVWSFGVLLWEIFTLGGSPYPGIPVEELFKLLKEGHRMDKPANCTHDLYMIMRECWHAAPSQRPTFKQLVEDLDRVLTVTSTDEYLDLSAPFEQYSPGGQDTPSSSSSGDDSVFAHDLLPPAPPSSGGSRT

[7] = target: T1, G protein-coupled receptor kinase 3 (Homo sapiens) (UniProt P35626); settings: Compound concentration 1000.0 nM
T1 sequence (whole entry): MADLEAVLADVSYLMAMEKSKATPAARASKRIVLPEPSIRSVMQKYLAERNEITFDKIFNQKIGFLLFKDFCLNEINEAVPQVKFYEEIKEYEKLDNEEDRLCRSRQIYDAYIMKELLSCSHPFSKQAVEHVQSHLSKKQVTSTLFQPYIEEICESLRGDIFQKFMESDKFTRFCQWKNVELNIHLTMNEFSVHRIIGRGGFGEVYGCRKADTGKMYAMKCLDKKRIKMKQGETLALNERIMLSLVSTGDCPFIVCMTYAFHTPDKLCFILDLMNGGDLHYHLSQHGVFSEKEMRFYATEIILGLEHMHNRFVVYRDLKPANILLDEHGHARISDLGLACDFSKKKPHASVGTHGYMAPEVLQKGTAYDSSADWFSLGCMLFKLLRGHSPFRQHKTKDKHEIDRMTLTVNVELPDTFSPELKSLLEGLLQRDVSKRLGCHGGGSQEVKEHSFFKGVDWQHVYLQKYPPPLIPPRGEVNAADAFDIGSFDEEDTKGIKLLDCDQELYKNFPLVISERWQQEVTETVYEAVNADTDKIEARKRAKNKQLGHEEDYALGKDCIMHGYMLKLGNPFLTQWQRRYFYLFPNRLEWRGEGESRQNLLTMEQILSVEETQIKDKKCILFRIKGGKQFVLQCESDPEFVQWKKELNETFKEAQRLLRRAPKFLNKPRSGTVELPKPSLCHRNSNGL

[8] = target: Tyrosine-protein kinase JAK1 (Homo sapiens) (UniProt P23458); settings: Compound concentration 1000.0 nM
Tyrosine-protein kinase JAK1 (Homo sapiens), sequence (P23458 whole entry): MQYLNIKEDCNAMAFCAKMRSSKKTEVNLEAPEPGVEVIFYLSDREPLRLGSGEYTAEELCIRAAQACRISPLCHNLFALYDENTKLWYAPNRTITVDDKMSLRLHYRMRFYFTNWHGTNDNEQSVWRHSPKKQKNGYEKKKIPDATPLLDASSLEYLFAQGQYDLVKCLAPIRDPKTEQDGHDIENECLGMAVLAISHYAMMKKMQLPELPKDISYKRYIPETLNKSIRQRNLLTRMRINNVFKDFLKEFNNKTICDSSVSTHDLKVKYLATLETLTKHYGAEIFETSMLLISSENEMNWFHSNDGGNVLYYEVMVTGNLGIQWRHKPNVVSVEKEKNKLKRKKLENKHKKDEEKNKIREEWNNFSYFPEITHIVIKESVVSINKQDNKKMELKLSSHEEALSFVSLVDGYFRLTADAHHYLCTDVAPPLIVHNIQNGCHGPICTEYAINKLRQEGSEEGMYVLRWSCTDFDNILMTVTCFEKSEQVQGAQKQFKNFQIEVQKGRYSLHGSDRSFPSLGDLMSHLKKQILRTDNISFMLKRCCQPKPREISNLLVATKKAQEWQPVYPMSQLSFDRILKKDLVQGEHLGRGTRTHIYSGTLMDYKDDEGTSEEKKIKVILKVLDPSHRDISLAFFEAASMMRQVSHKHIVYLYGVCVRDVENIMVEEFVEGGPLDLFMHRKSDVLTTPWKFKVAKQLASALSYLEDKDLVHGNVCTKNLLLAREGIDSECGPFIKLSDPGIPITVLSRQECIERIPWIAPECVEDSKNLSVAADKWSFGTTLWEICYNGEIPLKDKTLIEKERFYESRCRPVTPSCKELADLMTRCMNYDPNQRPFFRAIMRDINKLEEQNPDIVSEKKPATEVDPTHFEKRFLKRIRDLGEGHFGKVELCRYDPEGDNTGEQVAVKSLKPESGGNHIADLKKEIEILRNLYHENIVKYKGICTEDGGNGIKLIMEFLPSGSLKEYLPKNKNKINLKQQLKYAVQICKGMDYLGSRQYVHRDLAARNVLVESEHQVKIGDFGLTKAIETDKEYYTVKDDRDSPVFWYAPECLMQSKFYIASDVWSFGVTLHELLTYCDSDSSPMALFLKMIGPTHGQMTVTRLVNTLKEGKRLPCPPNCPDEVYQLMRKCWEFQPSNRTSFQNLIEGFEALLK

[9] = test system: Hepatocyte growth factor receptor (Homo sapiens), P08581 [Y1235D]; settings: Compound concentration 1000.0 nM
[10] = target: T2, Serine/threonine-protein kinase Nek3 (Homo sapiens) (UniProt P51956); settings: Compound concentration 1000.0 nM
T2 sequence (whole entry): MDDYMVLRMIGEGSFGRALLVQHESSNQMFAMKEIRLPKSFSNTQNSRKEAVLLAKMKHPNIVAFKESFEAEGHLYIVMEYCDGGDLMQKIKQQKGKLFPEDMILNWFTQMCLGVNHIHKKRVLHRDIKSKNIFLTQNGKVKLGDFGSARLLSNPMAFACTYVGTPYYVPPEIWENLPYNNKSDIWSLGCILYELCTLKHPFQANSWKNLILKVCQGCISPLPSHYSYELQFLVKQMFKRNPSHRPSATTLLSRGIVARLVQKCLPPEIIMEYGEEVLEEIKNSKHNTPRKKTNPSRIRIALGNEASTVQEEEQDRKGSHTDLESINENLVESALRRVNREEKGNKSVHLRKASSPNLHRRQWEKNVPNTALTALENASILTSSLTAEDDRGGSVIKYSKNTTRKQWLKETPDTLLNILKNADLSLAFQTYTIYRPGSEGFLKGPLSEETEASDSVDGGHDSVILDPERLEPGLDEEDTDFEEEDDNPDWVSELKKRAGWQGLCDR

[11] = target: Cyclin-dependent kinase 14 (Homo sapiens) (UniProt O94921); settings: Compound concentration 1000.0 nM
Cyclin-dependent kinase 14 (Homo sapiens), sequence (O94921 whole entry, canonical isoform): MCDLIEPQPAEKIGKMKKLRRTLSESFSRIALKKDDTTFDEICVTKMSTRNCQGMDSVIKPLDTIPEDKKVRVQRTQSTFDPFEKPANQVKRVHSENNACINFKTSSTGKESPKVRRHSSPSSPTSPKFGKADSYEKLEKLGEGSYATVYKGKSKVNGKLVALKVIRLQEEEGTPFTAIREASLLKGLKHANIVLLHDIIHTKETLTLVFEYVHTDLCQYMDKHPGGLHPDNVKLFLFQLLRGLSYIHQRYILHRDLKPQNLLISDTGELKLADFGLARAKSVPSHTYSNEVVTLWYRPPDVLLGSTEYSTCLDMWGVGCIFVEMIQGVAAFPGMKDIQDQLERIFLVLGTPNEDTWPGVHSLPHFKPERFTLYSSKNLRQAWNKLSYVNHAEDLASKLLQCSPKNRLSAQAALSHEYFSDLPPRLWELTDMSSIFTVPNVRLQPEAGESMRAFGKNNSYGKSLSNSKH

[12] = target: Phosphorylase b kinase gamma catalytic chain, skeletal muscle/heart isoform (Homo sapiens) (UniProt Q16816); settings: Compound concentration 1000.0 nM
Phosphorylase b kinase gamma catalytic chain, skeletal muscle/heart isoform (Homo sapiens), sequence (Q16816 whole entry, looked up, canonical isoform): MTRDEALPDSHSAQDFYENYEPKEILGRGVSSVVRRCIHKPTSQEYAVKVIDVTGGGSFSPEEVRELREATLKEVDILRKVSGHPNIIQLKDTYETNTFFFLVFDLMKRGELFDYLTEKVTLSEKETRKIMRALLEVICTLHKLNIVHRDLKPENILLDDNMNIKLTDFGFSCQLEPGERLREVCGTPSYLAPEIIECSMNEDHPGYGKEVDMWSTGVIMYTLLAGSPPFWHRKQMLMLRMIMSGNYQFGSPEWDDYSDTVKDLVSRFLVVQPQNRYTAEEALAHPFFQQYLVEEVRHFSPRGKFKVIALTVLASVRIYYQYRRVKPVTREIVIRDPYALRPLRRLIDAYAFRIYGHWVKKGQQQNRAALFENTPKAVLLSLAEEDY

[13] = target: Phosphatidylinositol 5-phosphate 4-kinase type-2 gamma (Homo sapiens) (UniProt Q8TBX8); settings: Compound concentration 1000.0 nM
Phosphatidylinositol 5-phosphate 4-kinase type-2 gamma (Homo sapiens), sequence (Q8TBX8 whole entry): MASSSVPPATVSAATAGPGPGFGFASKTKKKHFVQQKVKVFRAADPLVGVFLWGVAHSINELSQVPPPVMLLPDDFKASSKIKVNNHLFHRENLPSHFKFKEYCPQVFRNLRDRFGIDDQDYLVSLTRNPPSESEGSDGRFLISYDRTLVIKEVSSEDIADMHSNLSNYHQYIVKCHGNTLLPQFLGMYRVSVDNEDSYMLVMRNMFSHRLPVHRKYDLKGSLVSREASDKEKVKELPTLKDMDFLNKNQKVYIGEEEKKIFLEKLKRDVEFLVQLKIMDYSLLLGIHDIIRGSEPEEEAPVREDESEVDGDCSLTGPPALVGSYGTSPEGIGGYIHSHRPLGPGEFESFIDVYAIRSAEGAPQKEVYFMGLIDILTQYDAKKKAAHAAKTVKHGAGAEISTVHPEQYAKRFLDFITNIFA

[14] = target: Rho-associated protein kinase 2 (Homo sapiens) (UniProt O75116); settings: Compound concentration 1000.0 nM
[15] = target: T3, Serine/threonine-protein kinase TAO3 (Homo sapiens) (UniProt Q9H2K8); settings: Compound concentration 1000.0 nM
T3 sequence (whole entry): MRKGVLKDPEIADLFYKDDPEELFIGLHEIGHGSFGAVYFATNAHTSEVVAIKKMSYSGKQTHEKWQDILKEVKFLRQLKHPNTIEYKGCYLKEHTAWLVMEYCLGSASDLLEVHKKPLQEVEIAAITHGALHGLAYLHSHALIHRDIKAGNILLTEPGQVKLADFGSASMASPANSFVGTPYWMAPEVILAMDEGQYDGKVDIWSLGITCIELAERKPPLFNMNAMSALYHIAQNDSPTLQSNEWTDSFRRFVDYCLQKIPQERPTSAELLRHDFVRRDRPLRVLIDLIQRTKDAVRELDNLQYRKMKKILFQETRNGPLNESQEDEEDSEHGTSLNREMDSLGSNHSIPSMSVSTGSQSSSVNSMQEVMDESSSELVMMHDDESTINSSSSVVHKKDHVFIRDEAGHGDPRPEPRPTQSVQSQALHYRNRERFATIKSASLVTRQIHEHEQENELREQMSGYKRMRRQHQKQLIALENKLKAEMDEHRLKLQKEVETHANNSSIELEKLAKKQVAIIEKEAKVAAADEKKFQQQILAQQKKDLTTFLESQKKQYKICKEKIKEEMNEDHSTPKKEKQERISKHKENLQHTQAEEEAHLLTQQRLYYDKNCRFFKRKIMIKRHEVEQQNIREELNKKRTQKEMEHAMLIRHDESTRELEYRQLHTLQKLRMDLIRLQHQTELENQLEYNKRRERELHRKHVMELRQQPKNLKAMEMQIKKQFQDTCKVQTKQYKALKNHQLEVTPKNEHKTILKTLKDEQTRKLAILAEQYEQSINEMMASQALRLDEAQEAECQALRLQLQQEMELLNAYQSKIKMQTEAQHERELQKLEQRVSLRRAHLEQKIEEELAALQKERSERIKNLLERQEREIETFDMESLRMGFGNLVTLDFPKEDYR

[16] = target: Serine/threonine-protein kinase WNK2 (Homo sapiens) (UniProt Q9Y3S1); settings: Compound concentration 1000.0 nM
[17] = target: Muscarinic acetylcholine receptor M5 (Homo sapiens) (UniProt P08912); settings: Compound concentration 10.0 uM

Casein kinase I isoform gamma-1 (Homo sapiens), sequence (Q9HCP0 whole entry, looked up, canonical isoform): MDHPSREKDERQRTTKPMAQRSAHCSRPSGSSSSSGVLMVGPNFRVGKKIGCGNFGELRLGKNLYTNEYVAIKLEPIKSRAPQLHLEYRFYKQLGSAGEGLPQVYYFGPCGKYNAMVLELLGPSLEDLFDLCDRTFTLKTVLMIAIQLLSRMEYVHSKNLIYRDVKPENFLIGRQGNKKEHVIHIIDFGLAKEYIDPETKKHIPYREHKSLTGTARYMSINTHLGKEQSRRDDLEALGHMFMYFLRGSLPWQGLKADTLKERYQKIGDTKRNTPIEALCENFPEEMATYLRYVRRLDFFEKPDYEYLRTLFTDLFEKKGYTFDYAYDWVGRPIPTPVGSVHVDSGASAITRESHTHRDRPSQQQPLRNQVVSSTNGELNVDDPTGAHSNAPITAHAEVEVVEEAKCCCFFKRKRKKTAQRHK

Cc1nc(C2CCN(C(=O)c3ccc(OC(F)(F)F)cc3N)CC2)c2ncc(N3CCN(C)CC3)cc2n1 [BAY-693]
inactive: residual activity [1] 98% | residual activity [2] 100% | residual activity [3] 86% | residual activity [4] 100% | residual activity [5] 99% | residual activity [6] 100% | residual activity [7] 93% | residual activity [8] 95% | residual activity [9] 98% | residual activity [10] 89% | residual activity [11] 100% | residual activity [12] 100% | residual activity [13] 100% | residual activity [14] 91% | residual activity [15] 100% | residual activity [16] 100% | inhibition [17] -3.81%

CN1CCN(c2cnc3c(C4CCN(C(=O)c5ccc(OC(F)(F)F)cc5N)CC4)ncnc3c2)CC1 [BAY-885]
inactive: residual activity [1] 100% | residual activity [2] 100% | residual activity [3] 99% | residual activity [4] 100% | residual activity [5] 100% | residual activity [6] 100% | residual activity [7] 89% | residual activity [8] 100% | residual activity [9] 73% | residual activity [10] 97% | residual activity [11] 100% | residual activity [12] 100% | residual activity [13] 100% | residual activity [14] 100% | residual activity [15] 100% | residual activity [16] 100% | inhibition [17] 2.02%
